Among the data in PubChem BioAssay (NCI) are TGI and GI50 values, retold here.

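Protocol summary: plate cells (96-well), add compound at 5 concentrations, incubate 48 h, interpolate endpoints linearly. GI50 marks 50% less growth. At the TGI there is no net growth.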 A value given as a limit tells only on which side of the number the result lay.

Among the test systems are HOP-62 NSCLC; ACHN renal; NCI-H460 lung; HOP-18 NSCLC; TK-10 renal; HCT-15 colon; M19-MEL melanoma; A498 renal; DU-145 prostate; HS 578T breast.
Holding throughout (experiment): growth of human tumour cells (NCI), 48 h

Turning to `CN(C)CC1CCCC/C1=N/O` (stereo not drawn), the TGI with HOP-62 NSCLC, in the experiment on ACHN renal, in the experiment on NCI-H460 lung, with HOP-18 NSCLC, with TK-10 renal and in the experiment with HCT-15 colon was greater than 100 µM each time. The TGI with M19-MEL melanoma and in the experiment with A498 renal was greater than 100 µM each time.

In the case of `N#CC(C(=O)CCC(=O)Nc1ccc(Cl)c(Cl)c1)c1ccccc1` (stereo not drawn), the TGI with HOP-62 NSCLC, in the experiment with ACHN renal, in the experiment on HOP-18 NSCLC, in the experiment on HCT-15 colon, in the experiment on M19-MEL melanoma and with A498 renal was greater than 100 µM in each case.

Consider `O=C(NC1C=CCC2C(=O)N(c3ccccc3)C(=O)C12)OCc1ccccc1` (stereo not drawn), for which the TGI in the experiment on HOP-62 NSCLC, with ACHN renal, in the experiment on NCI-H460 lung, in the experiment with HOP-18 NSCLC, in the experiment on TK-10 renal and with M19-MEL melanoma was greater than 100 µM in each case.

With `Clc1ccc2cccc3c2c1C1OC3c2ccccc21` (stereo not drawn), the TGI in the experiment with HOP-62 NSCLC, in the experiment on ACHN renal, with HOP-18 NSCLC, in the experiment with TK-10 renal, in the experiment on M19-MEL melanoma and in the experiment on A498 renal was greater than 100 µM in each case.

In the case of `[O-][Cl+3]([O-])([O-])[O-].[O]=[Ru]=[O].c1ccc(-c2ccccn2)nc1.c1ccc(-c2ccccn2)nc1`, the GI50 in the experiment on HOP-62 NSCLC was greater than 100 µM; in the experiment on ACHN renal, greater than 100 µM; in the experiment with NCI-H460 lung, 56.1 µM; in the experiment on HOP-18 NSCLC, greater than 100 µM; in the experiment on HCT-15 colon, greater than 100 µM; in the experiment on M19-MEL melanoma it was greater than 100 µM. Besides, the GI50 with A498 renal is greater than 100 µM. Besides, the TGI in the experiment on HOP-62 NSCLC, with ACHN renal, in the experiment on NCI-H460 lung, in the experiment with HOP-18 NSCLC, in the experiment on HCT-15 colon and with M19-MEL melanoma was greater than 100 µM each time. The TGI in the experiment with A498 renal was greater than 100 µM.

On to `O=C(O)CSc1n[nH]c(-c2ccccc2O)n1`, for which the TGI in the experiment with ACHN renal, in the experiment on NCI-H460 lung, in the experiment with TK-10 renal, with HCT-15 colon, with M19-MEL melanoma and with A498 renal was greater than 100 µM throughout.

For the compound `COc1c(CC(C)=O)ccc2c1C(=O)c1ccc(C=O)c(OC(C)=O)c1C2=O`, the TGI turned out to be 51.3 µM in the experiment with ACHN renal; 63.2 µM with NCI-H460 lung; 40.6 µM in the experiment with HOP-18 NSCLC; 75.1 µM with TK-10 renal; 29.5 µM with HCT-15 colon; 80.3 µM in the experiment on A498 renal.

With `Cc1cc(Nc2ccc(C)c(Cl)c2)n2nc(C(F)(F)F)nc2n1`, the GI50 with HOP-62 NSCLC was 30.8 µM; in the experiment with DU-145 prostate, 17.6 µM; in the experiment on HS 578T breast, 22.6 µM; with ACHN renal it was 16.3 µM; in the experiment with NCI-H460 lung, 20.9 µM; with TK-10 renal, 31.2 µM. Also, the figures for the GI50 in the experiment on HCT-15 colon and with A498 renal were 23.6 µM and 8.61 µM, respectively. For the same compound, the TGI was determined as 98.9 µM in the experiment with HOP-62 NSCLC; 38.9 µM in the experiment on DU-145 prostate; 77.4 µM in the experiment on HS 578T breast; 35.9 µM in the experiment with ACHN renal; 78.7 µM with NCI-H460 lung; 84.8 µM in the experiment with TK-10 renal. The TGI was greater than 100 µM in the experiment with HCT-15 colon and 53.5 µM in the experiment on A498 renal.

Take `CC(=O)OC1(C)N=NC2(CCCCC2)O1` (stereo not drawn): the TGI in the experiment with HOP-62 NSCLC, in the experiment with DU-145 prostate, with HS 578T breast, in the experiment with ACHN renal, in the experiment with NCI-H460 lung and in the experiment on TK-10 renal was greater than 100 µM each time. The TGI with HCT-15 colon and with A498 renal was greater than 100 µM in each case.

As to `C[C@@H]1CC[C@H]2C(C)(C)[C@H]3C[C@@]12CC[C@@]3(C)O`, the TGI in the experiment with HOP-62 NSCLC is greater than 100 µM; in the experiment on DU-145 prostate it was greater than 100 µM; with HS 578T breast it was greater than 100 µM; in the experiment with ACHN renal, greater than 100 µM; in the experiment with NCI-H460 lung, 34.9 µM; in the experiment with TK-10 renal, greater than 100 µM. Further, the TGI in the experiment on HCT-15 colon and in the experiment with A498 renal was greater than 100 µM throughout.

In the case of `CN(C)C=Nc1nc(=O)n(C2CCC(CO)O2)cc1F` (stereo not drawn), the TGI in the experiment with HOP-62 NSCLC, with ACHN renal, with NCI-H460 lung, with HOP-18 NSCLC, in the experiment with TK-10 renal and with HCT-15 colon was greater than 100 µM throughout.

Turning to `CN1CCN(C(=O)COc2ccc(C34CC5CC(CC(C5)C3)C4)cc2)CC1`, the GI50 in the experiment on HOP-62 NSCLC is 14.5 µM; in the experiment with DU-145 prostate it was 19 µM; in the experiment with HS 578T breast it was 15.6 µM; in the experiment on ACHN renal, 17.2 µM; in the experiment on NCI-H460 lung, 13.2 µM; in the experiment on TK-10 renal it was 16.7 µM. Further, the GI50 was 7.33 µM in the experiment on HCT-15 colon and 15.2 µM in the experiment with A498 renal. In addition, the TGI in the experiment on HOP-62 NSCLC worked out at 32.5 µM; in the experiment with DU-145 prostate, 55.7 µM; in the experiment on HS 578T breast, 45.6 µM; in the experiment with ACHN renal, 39.5 µM; with NCI-H460 lung it was 27.5 µM; in the experiment with TK-10 renal, 33.2 µM. The TGI stood at 21 µM in the experiment on HCT-15 colon and 30.5 µM in the experiment with A498 renal.

In the case of `Cc1nc(-c2nc(C)c(C(=O)NNC(=O)C[n+]3ccccc3)s2)sc1C(=O)NNC(=O)C[n+]1ccccc1`, the TGI in the experiment with HOP-62 NSCLC, in the experiment on ACHN renal, with NCI-H460 lung, in the experiment on TK-10 renal, in the experiment with HCT-15 colon and in the experiment on M19-MEL melanoma was greater than 100 µM throughout. For the same compound, in the experiment with A498 renal, the TGI is greater than 100 µM.

As to `Cc1ccc(-c2nc(N3CCNCC3)c3oc(-c4ccc(C)cc4)nc3n2)cc1`, the GI50 is 10.1 µM in the experiment with HOP-62 NSCLC; 1.98 µM in the experiment on DU-145 prostate; 2.23 µM in the experiment on ACHN renal; 2.03 µM with NCI-H460 lung; 5.43 µM in the experiment on TK-10 renal; 1.72 µM with HCT-15 colon. For the same compound, in the experiment on A498 renal, the GI50 is 15.8 µM. Moreover, the TGI with HOP-62 NSCLC was greater than 100 µM; in the experiment with DU-145 prostate, 3.76 µM; with HS 578T breast it was greater than 24.2 µM; with ACHN renal it was 4.78 µM; in the experiment with NCI-H460 lung, 4.41 µM; in the experiment on TK-10 renal, 14 µM. Moreover, the figures for the TGI in the experiment on HCT-15 colon and in the experiment with A498 renal were 3.28 µM and 32 µM, respectively.
